In patent US8444972B2, “Antitumor antibodies, proteins, and uses thereof” (University of Massachusetts, priority 1999, dated 2013):

System: E710.2.3
Experiment: Homotypic aggregation assay

Paraformaldehyde
HOMOTYPIC ADHESION induced by DMF10.62.3 in presence of chemical: inhibited
